Data on 21 compounds can be found in patent US20250129078A1, “ERBB2 INHIBITORS” (Cogent Biosciences, Inc., priority 2023, published 2025).

Counter-ions that a name gives are not always drawn.

Experiment [1] concerns the target EGFR WT (Homo sapiens (Human), UniProt P00533). Put plainly: ErbB enzyme assay (CisBio HTRF-KinEASE-TK), EGFR WT. Format: biochemical. The following applies: ATP at Km (25 μM), 1 h incubation. The essentials: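 Compounds, serially diluted three-fold, were incubated with enzyme for 1 h at ambient temperature. Detection reagents were then added for a further hour, and the 655/620 nm HTRF ratio was normalised to uninhibited and pre-quenched controls. IC50 was fitted with a four-parameter logistic model.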

Experiment [2] has as its target ErbB2 V777L (Homo sapiens (Human), UniProt P04626, V777L). Put plainly: ErbB enzyme assay (CisBio HTRF-KinEASE-TK), ErbB2 V777L. Format: biochemical. The method, then:
In vitro enzyme assays based on CisBio HTRF-KinEASE-TK technology were used to determine compound potencies. […] After another 1 h incubation at ambient temperature, the extent of substrate phosphorylation was determined using a PerkinElmer EnVision multimode plate reader via time-resolved fluorescence dual wavelength detection. The percent of control (POC) was calculated using the ratio of emission at […] to the emission at 620 nm. One hundred POC was determined using DMSO only controls (no test compounds present) and zero POC was determined using pre-quenched controls reactions. A 4-parameter logistic equation was fit to the POC values as a function of the test compound concentration and the IC50 value was determined as the point where the curve crossed 50 POC.
A general note: In TR-FRET formats the signal depends on donor and acceptor labels being close together.

EGFR WT, sequence (P00533 25-1210): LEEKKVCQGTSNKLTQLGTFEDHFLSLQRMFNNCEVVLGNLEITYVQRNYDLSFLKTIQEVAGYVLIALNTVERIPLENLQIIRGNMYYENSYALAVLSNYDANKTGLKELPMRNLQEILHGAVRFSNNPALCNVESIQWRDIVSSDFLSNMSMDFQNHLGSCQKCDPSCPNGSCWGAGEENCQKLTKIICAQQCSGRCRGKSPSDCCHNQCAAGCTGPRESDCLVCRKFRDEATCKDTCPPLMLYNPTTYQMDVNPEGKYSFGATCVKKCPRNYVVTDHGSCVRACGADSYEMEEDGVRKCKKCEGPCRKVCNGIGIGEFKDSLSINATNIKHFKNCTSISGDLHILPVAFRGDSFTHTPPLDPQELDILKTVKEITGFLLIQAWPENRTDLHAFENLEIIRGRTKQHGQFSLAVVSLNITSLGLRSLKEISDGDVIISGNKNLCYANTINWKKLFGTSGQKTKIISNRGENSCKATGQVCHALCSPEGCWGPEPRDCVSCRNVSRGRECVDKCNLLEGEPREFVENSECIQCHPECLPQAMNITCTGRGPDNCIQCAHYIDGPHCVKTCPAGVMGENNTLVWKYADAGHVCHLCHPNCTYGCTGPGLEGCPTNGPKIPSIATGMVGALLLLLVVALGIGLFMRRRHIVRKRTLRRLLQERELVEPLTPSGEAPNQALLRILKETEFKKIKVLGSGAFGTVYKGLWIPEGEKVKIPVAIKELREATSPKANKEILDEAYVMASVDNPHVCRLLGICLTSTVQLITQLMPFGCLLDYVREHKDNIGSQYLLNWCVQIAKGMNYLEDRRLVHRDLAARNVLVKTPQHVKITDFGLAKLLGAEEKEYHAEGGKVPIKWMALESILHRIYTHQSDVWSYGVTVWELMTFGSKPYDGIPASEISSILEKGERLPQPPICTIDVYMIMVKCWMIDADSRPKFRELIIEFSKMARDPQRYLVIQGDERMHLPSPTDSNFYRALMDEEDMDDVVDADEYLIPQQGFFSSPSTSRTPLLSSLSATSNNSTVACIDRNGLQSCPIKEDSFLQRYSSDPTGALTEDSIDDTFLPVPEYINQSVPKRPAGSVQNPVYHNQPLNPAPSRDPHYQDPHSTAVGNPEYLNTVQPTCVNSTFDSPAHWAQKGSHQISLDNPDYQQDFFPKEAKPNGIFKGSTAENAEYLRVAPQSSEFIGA
ErbB2 V777L, sequence (P04626 23-1255 V777L): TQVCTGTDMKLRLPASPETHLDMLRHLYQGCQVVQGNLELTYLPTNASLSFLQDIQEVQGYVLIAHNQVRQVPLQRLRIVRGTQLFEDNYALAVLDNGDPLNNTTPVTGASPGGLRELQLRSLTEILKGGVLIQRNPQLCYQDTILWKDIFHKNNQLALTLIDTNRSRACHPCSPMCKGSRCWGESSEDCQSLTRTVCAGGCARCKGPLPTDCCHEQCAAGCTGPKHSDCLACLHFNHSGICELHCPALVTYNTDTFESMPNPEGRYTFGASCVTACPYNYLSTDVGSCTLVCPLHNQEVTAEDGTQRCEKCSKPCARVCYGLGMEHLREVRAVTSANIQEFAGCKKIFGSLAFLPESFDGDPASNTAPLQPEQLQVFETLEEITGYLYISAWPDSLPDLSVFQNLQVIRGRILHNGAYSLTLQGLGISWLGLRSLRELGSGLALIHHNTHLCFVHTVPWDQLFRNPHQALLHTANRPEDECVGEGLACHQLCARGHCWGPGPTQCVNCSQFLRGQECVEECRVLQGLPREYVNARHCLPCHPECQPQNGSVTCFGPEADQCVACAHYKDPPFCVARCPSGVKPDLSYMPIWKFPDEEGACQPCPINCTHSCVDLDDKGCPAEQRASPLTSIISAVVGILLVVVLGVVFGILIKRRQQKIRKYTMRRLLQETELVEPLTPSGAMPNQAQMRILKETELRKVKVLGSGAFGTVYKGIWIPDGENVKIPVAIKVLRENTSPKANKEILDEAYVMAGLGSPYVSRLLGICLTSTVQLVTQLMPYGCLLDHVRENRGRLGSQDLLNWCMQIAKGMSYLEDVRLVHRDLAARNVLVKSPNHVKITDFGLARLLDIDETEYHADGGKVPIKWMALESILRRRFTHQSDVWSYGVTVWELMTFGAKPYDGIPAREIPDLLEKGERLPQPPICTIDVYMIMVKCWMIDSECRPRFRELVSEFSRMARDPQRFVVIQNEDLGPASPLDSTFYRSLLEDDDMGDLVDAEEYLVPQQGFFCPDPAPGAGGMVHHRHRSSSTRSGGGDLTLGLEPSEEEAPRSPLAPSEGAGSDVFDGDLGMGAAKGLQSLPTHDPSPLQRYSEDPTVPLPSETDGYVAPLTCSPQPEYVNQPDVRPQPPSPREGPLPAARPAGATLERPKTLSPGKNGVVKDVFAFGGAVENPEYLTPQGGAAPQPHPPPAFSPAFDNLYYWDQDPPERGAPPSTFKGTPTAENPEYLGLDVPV

As to `C=CC(=O)N1CCN(c2ccc3ncnc(Nc4cc(F)c(Oc5ccc6c(c5)nnn6C)c(C)c4F)c3n2)C[C@H]1C` [Compound 326, (R)-1-(4-(4-((2,5-difluoro-3-methyl-4-((1-methyl-1H-benzo[d][1,2,3]triazol-5-yl)oxy)phenyl)amino)pyrido[3,2-d]pyrimidin-6-yl)-2-methylpiperazin-1-yl)prop-2-en-1-one], the IC50 (usually the concentration needed to halve the response being measured) in experiment [1] was 100 to 500 nM; in experiment [2] it was 50 to 100 nM.
For the compound `C=CC(=O)N[C@@H]1CCCN(c2ccc3ncnc(Nc4ccc(Oc5ccc6c(c5)nnn6C)c(C)c4F)c3n2)[C@@H]1C` [Compound 268, N-((2R,3R)-1-(4-((2-fluoro-3-methyl-4-((1-methyl-1H-benzo[d][1,2,3]triazol-5-yl)oxy)phenyl)amino)pyrido[3,2-d]pyrimidin-6-yl)-2-methylpiperidin-3-yl)acrylamide], the IC50 in experiment [1] was in the range of 100 to 500 nM; in experiment [2], 50 to 100 nM.
For the compound `C=CC(=O)N1CCN(c2ccc3ncnc(Nc4ccc(Oc5ccc6c(c5)nnn6C(F)F)c(C)c4)c3n2)C[C@H]1C` [Compound 320, (R)-1-(4-(4-((4-((1-(difluoromethyl)-1H-benzo[d][1,2,3]triazol-5-yl)oxy)-3-methylphenyl)amino)pyrido[3,2-d]pyrimidin-6-yl)-2-methylpiperazin-1-yl)prop-2-en-1-one], the IC50 in experiment [1] and in experiment [2] was 100 to 500 nM each time.
`C=CC(=O)N1CCN(c2ccc3ncnc(Nc4ccc(Oc5ccc6c(c5)nnn6C)c(C)c4)c3n2)C[C@H]1CC` [Compound 294, (R)-1-(2-ethyl-4-(4-((3-methyl-4-((1-methyl-1H-benzo[d][1,2,3]triazol-5-yl)oxy)phenyl)amino)pyrido[3,2-d]pyrimidin-6-yl)piperazin-1-yl)prop-2-en-1-one]: the IC50 in experiment [1] and in experiment [2] was 100 to 500 nM throughout.
As to `C=CC(=O)N1CC(F)(F)C12CN(c1ncc3ncnc(Nc4ccc(Oc5ccc6c(c5)nnn6C)c(C)c4)c3n1)C2` [Compound 221, 1-(3,3-difluoro-6-(8-((3-methyl-4-((1-methyl-1H-benzo[d][1,2,3]triazol-5-yl)oxy)phenyl)amino)pyrimido[5,4-d]pyrimidin-2-yl)-1,6-diazaspiro[3.3]heptan-1-yl)prop-2-en-1-one], the IC50 in experiment [1] was less than 50 nM; in experiment [2] it was 50 to 100 nM.
The matching figures for `C=CC(=O)N1CCN(c2ncc3ncnc(Nc4ccc(Oc5ccc6c(c5)nnn6C)c(CC)c4)c3n2)CC1` [Compound 114, 1-(4-(8-((3-ethyl-4-((1-methyl-1H-benzo[d][1,2,3]triazol-5-yl)oxy)phenyl)amino)pyrimido[5,4-d]pyrimidin-2-yl)piperazin-1-yl)prop-2-en-1-one]: 100 to 500 nM and 100 to 500 nM.
The matching figures for `C=CC(=O)N1CCN(c2ccc3ncnc(Nc4ccc(Oc5ccc6c(c5)nnn6C)c(C)c4F)c3n2)C[C@@H]1C` [Compound 325, (S)-1-(4-(4-((2-fluoro-3-methyl-4-((1-methyl-1H-benzo[d][1,2,3]triazol-5-yl)oxy)phenyl)amino)pyrido[3,2-d]pyrimidin-6-yl)-2-methylpiperazin-1-yl)prop-2-en-1-one]: 100 to 500 nM and 100 to 500 nM.
For the compound `C=CC(=O)N1C[C@@H](C)N(c2ncc3ncnc(Nc4ccc(Oc5ccc6c(c5)nnn6C)c(C)c4)c3n2)C[C@@H]1C` [Compound 188, 1-((2S,5R)-2,5-dimethyl-4-(8-((3-methyl-4-((1-methyl-1H-benzo[d][1,2,3]triazol-5-yl)oxy)phenyl)amino)pyrimido[5,4-d]pyrimidin-2-yl)piperazin-1-yl)prop-2-en-1-one], the IC50 was not below 1000 nM in experiment [1] and 500 to 1000 nM in experiment [2].
The like results for `C=CC(=O)N1CCN(c2ncc3ncnc(Nc4ccc(Oc5cc6ncn(C)c6nc5C)c(C)c4)c3n2)CC1` [Compound 135, 1-(4-(8-((4-((3,5-dimethyl-3H-imidazo[4,5-b]pyridin-6-yl)oxy)-3-methylphenyl)amino)pyrimido[5,4-d]pyrimidin-2-yl)piperazin-1-yl)prop-2-en-1-one] were, in that order, 100 to 500 nM and 50 to 100 nM.
With `C=CC(=O)N1CCN(c2ccc3ncnc(Nc4ccc(Oc5cc(F)c6c(c5)nnn6C)c(C)c4F)c3n2)CC1` [Compound 91, 1-(4-(4-((2-fluoro-4-((7-fluoro-1-methyl-1H-benzo[d][1,2,3]triazol-5-yl)oxy)-3-methylphenyl)amino)pyrido[3,2-d]pyrimidin-6-yl)piperazin-1-yl)prop-2-en-1-one], the IC50 in experiment [1] is less than 50 nM; in experiment [2], 50 to 100 nM.
The matching figures for `C=CC(=O)N1C2CC1CN(c1ncc3ncnc(Nc4cc(C)c(Oc5ccc6c(c5)nnn6C)cc4OC)c3n1)C2` [Compound 13, 1-(3-(8-((2-methoxy-5-methyl-4-((1-methyl-1H-benzo[d][1,2,3]triazol-5-yl)oxy)phenyl)amino)pyrimido[5,4-d]pyrimidin-2-y1)-3,6-diazabicyclo[3.1.1]heptan-6-yl)prop-2-en-1-one]: 100 to 500 nM and 100 to 500 nM.
For `C=CC(=O)N(C)C1CC2(C1)CN(c1ncc3ncnc(Nc4ccc(Oc5ccc6c(c5)nnn6C)c(C)c4)c3n1)C2` [Compound 232, N-methyl-N-(2-(8-((3-methyl-4-((1-methyl-H-benzo[d][1,2,3]triazol-5-yl)oxy)phenyl)amino)pyrimido[5,4-d]pyrimidin-2-yl)-2-azaspiro[3.3]heptan-6-yl)acrylamide], the IC50 in experiment [1] is not below 1000 nM; in experiment [2], 500 to 1000 nM.
The matching figures for `Cc1c(Oc2ccc3c(c2)nnn3C)ccc(Nc2ncnc3ccc(N4CCN(C(=O)/C=C/CF)[C@H](C)C4)nc23)c1F` [Compound 360, (R,E)-4-fluoro-1-(4-(4-((2-fluoro-3-methyl-4-((1-methyl-1H-benzo[d][1,2,3]triazol-5-yl)oxy)phenyl)amino)pyrido[3,2-d]pyrimidin-6-yl)-2-methylpiperazin-1-yl)but-2-en-1-one]: 100 to 500 nM and 50 to 100 nM.
With `C=CC(=O)N1CCN(c2ncc3ncnc(Nc4ccc(Oc5ccc6c(c5)nnn6C)c(C)c4)c3n2)[C@@H]2CC[C@H]21` [Compound 189, 1-((1R,6R)-5-(8-((3-methyl-4-((1-methyl-1H-benzo[d][1,2,3]triazol-5-yl)oxy)phenyl)amino)pyrimido[5,4-d]pyrimidin-2-y1)-2,5-diazabicyclo[4.2.0]octan-2-yl)prop-2-en-1-one], the IC50 fell in the range of 500 to 1000 nM in experiment [1] and 100 to 500 nM in experiment [2].
The like results for `C=CC(=O)N1CCC[C@H](N(C)c2ncc3ncnc(Nc4ccc(Oc5ccc6c(c5)nnn6C)c(C)c4)c3n2)C1` [Compound 224, (S)-1-(3-(methyl(8-((3-methyl-4-((1-methyl-1H-benzo[d][1,2,3]triazol-5-yl)oxy)phenyl)amino)pyrimido[5,4-d]pyrimidin-2-yl)amino)piperidin-1-yl)prop-2-en-1-one] were, in that order, 100 to 500 nM and 50 to 100 nM.
In the case of `C=CC(=O)N1CCCN(c2ccc3ncnc(Nc4cc(C)c(Oc5ccc6c(c5)nnn6C)cc4OC)c3n2)CC1` [Compound 264, 1-(4-(4-((2-methoxy-5-methyl-4-((1-methyl-1H-benzo[d][1,2,3]triazol-5-yl)oxy)phenyl)amino)pyrido[3,2-d]pyrimidin-6-yl)-1,4-diazepan-1-yl)prop-2-en-1-one], the IC50 in experiment [1] and in experiment [2] was 500 to 1000 nM throughout.
On to `C=CC(=O)N1CCN(c2ncc3ncnc(Nc4ccc(Oc5ccc6c(c5)nnn6C)c(C)c4)c3n2)C[C@@H]1C1CC1` [Compound 117, (S)-1-(2-cyclopropyl-4-(8-((3-methyl-4-((1-methyl-1H-benzo[d][1,2,3]triazol-5-yl)oxy)phenyl)amino)pyrimido[5,4-d]pyrimidin-2-yl)piperazin-1-yl)prop-2-en-1-one], for which the IC50 in experiment [1] was not below 1000 nM; in experiment [2], 100 to 500 nM.
The matching figures for `C=C(F)C(=O)N1CCN(c2ncc3ncnc(Nc4ccc(Oc5ccc6c(c5)nnn6C)c(C)c4)c3n2)C[C@@H]1C(F)(F)F` [Compound 231, (R)-2-fluoro-1l-(4-(8-((3-methyl-4-((1-methyl-1H-benzo[d][1,2,3]triazol-5-yl)oxy)phenyl)amino)pyrimido[5,4-d]pyrimidin-2-yl)-2-(trifluoromethyl)piperazin-1-yl)prop-2-en-1-one]: 500 to 1000 nM and 500 to 1000 nM.
The matching figures for `C=CC(=O)N1CCN(c2ncc3ncnc(Nc4ccc(Oc5ccc6c(c5)nnn6C)c(C)c4F)c3n2)CC1(C)C` [Compound 32, 1-(4-(8-((2-fluoro-3-methyl-4-((1-methyl-1H-benzo[d][1,2,3]triazol-5-yl)oxy)phenyl)amino)pyrimido [5,4-d]pyrimidin-2-yl)-2,2-dimethylpiperazin-1-yl)prop-2-en-1-one]: 100 to 500 nM and 100 to 500 nM.
The like results for `C=CC(=O)N1CC2CC1CN2c1ncc2ncnc(Nc3ccc(Oc4ccc5c(c4)nnn5C)c(C)c3)c2n1` (stereo not drawn) [Compound 61, 1-(5-(8-((3-methyl-4-((1-methyl-1H-benzo[d][1,2,3]triazol-5-yl)oxy)phenyl)amino)pyrimido[5,4-d]pyrimidin-2-yl)-2,5-diazabicyclo[2.2.1]heptan-2-yl)prop-2-en-1-one] were, in that order, less than 50 nM and 50 to 100 nM.
With `C=CC(=O)N1C2CCC1CC(c1ccc3ncnc(Nc4ccc(Oc5ccc6c(c5)nnn6C)c(C)c4)c3n1)C2` (stereo not drawn) [Compound 397, 1-(3-(4-((3-methyl-4-((1-methyl-1H-benzo[d][1,2,3]triazol-5-yl)oxy)phenyl)amino)pyrido[3,2-d]pyrimidin-6-y1)-8-azabicyclo[3.2.1]octan-8-yl)prop-2-en-1-one trifluoroacetate], the IC50 in experiment [1] is 500 to 1000 nM; in experiment [2] it was 100 to 500 nM.
